This is an account of results in BindingDB's records for doi:10.7270/Q2J38R0R (Burnham Center For Chemical Genomics, 2010).

Molecules are shown by their SMILES.

The target of this assay is Intestinal-type alkaline phosphatase (Mus musculus, UniProt P24822). In words: mouse intestinal alkaline phosphatase activators, dose response, biochemical, luminescence, uHTS hits (AID 488783).
Chain of Intestinal-type alkaline phosphatase (P24822 whole entry, looked up): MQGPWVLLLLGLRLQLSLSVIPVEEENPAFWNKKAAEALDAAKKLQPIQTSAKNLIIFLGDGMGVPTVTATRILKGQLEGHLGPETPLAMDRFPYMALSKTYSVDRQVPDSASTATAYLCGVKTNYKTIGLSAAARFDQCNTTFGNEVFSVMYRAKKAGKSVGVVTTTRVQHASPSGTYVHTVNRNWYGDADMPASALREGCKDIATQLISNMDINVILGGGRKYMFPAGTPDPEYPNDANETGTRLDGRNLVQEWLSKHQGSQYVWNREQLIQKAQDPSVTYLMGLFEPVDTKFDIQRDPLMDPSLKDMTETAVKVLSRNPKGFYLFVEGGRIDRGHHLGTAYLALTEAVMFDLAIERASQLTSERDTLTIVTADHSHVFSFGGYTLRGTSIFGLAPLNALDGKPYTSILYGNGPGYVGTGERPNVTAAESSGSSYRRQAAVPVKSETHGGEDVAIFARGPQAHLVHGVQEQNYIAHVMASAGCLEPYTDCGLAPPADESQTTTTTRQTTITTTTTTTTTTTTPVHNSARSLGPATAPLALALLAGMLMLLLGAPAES
Broadly, the EC50 is the concentration at which the effect is half-maximal. Higher therefore signals a less potent agent. Consider `O=C(NN=CC1=CC(=O)C(=O)CC1)NN=CC1=CC(=O)C(=O)CC1` [1,3-bis[[(Z)-(3-hydroxy-4-oxocyclohexa-2,5-dien-1-ylidene)methyl]amino]urea], for which the EC50 stood at 4.96 µM. This counts as single-digit micromolar.
`CN(CCO)c1ccc(CN=Nc2ccc([N+](=O)[O-])cc2S(=O)(=O)Nc2ccccc2C(=O)O)cc1` returned an EC50 of 17.5 µM.
`Cc1cc(=O)[nH]c(N=NCc2ccc(O)c(O)c2)n1` [MLS001194906]: the EC50 worked out at 58.7 µM.
Then `O=C1CC(=O)c2c(O)cc(O)c(O)c2C1=O` [4,5,7,8-tetrahydroxy-1,2-naphthoquinone], with 9.93 µM.
